Measurements: the OligoGym collection
“And” between values parts separate entries of the source, which are not always exact repeats. Equal values may be shown once. After the bases stand the sugars from the 5' end (letter, count) and the backbone: PS all phosphorothioate, else s phosphorothioate and o phosphodiester by linkage. Methylation of C is not given here. e = 2'-O-(2-methoxyethyl) (MOE); k = constrained ethyl (cEt); d = 2'-deoxy (DNA)

Molecular target: SOD1
Details: ASO

“CTTTTTCATGGACCACC (sugars e3 k2 d7 k2 e3, PS)” was tested, and the target mRNA inhibition (HepG2, 3 µM) was 87%.
“TCATCTGCTTTTTCATG (sugars e3 k2 d7 k2 e3, PS)” gave a target mRNA inhibition (HepG2, 3 µM) of 71%.
For “TACCCATCTGTGATTTA (sugars e2 k2 d8 k2 e3, PS)”, the target mRNA inhibition (HepG2, 5 µM) was 29%.
In the case of “GACTACATCCAAGGGAA (sugars e3 k2 d7 k2 e3, PS)”, the target mRNA inhibition (HepG2, 3 µM) is reported as 19%.
With “ATCTTCAATAGACACATCGG (sugars e5 d10 e5, PS)” the target mRNA inhibition (HepG2, 5 µM) was 16% and 0%.
Work on “GATACATTTCTACAGCT (sugars e2 k2 d8 k2 e3, PS)” yielded a target mRNA inhibition (HepG2, 4 µM) of 64%.
With “ACACAATTACACTTTTAAGA (sugars e5 d10 e5, PS)” the target mRNA inhibition (HepG2, 5 µM) was 0%.
With “TGCCCAAGTCATCTGCT (sugars e3 k2 d7 k2 e3, PS)” the target mRNA inhibition (HepG2, 3 µM) was 90%.
“AAGTGCCATACAGGGTT (sugars e2 k2 d9 k2 e2, PS)” was tested, and the target mRNA inhibition (HepG2, 5 µM) was 21%.
“TGAATTTGGATTCTTTTAAT (sugars e5 d10 e5, PS)” gave a target mRNA inhibition (HepG2, 5 µM) of 0%.
With “AACCAGCACCCCGTCTCCGC (sugars e5 d10 e5, PS)” the target mRNA inhibition (HepG2, 4 µM) was 11%.
Sequence “TTAATGTTTATCAGGAT (sugars e2 k2 d8 k2 e3, linkages s1 o2 s9 o2 s2)” has a target mRNA inhibition (A431, 0.12 µM) of 12%, a target mRNA inhibition (A431, 0.6 µM) of 36% and a target mRNA inhibition (A431, 3 µM) of 49%. It also gave a target mRNA inhibition (A431, 15 µM) of 72%, a target mRNA inhibition (HepG2, 0.222 µM) of 67% and a target mRNA inhibition (HepG2, 0.667 µM) of 90%. The target mRNA inhibition (HepG2, 2 µM) was 97% and the target mRNA inhibition (HepG2, 6 µM) was 94%.
“TTAATACCCATCTGTGA (sugars e3 k2 d7 k2 e3, PS)” was tested, and the target mRNA inhibition (HepG2, 3 µM) was 2%.
“ATTTCCACCTTTGCCCA (sugars e3 k2 d7 k2 e3, PS)” was tested, and the target mRNA inhibition (HepG2, 3 µM) was 63%.
“TAAGATTACAGTGTTTA (sugars e3 k2 d7 k2 e3, PS)” was tested, and the target mRNA inhibition (HepG2, 3 µM) was 54%.
With “GCCCAAGTCATCTGCTT (sugars e3 k2 d7 k2 e3, PS)” the target mRNA inhibition (HepG2, 3 µM) was 93%.
“CGCAAACCAGCACCCCGTCT (sugars e5 d10 e5, PS)” was tested, and the target mRNA inhibition (HepG2, 4 µM) was 21%.
In the case of “ACTGCAACGGAAACCCCAGA (sugars e5 d10 e5, PS)”, the target mRNA inhibition (HepG2, 4 µM) is reported as 43%.
Work on “AATGTTTATTGGGCGAT (sugars e3 k2 d7 k2 e3, PS)” yielded a target mRNA inhibition (HepG2, 3 µM) of 30%.
“TTAATACCCATCTGTGA (sugars e2 k2 d9 k2 e2, PS)” showed a target mRNA inhibition (HepG2, 5 µM) of 26%.
With “GTCACACAATTACACTT (sugars e2 k2 d9 k2 e2, PS)” the target mRNA inhibition (HepG2, 5 µM) was 35%.
“GATCCCAATTACACCAC (sugars e3 k2 d7 k2 e3, PS)” showed a target mRNA inhibition (HepG2, 3 µM) of 3%.
“GCTTGAATGACAAAGAA (sugars e2 k2 d9 k2 e2, PS)” was tested, and the target mRNA inhibition (HepG2, 5 µM) was 32%.
“AGCTAGCAGGATAACAG (sugars e3 k2 d7 k2 e3, PS)” was tested, and the target mRNA inhibition (HepG2, 3 µM) was 15%.
For “TAATGTTTATCAGGATA (sugars e2 k2 d8 k2 e3, linkages s1 o2 s9 o2 s2)”, the target mRNA inhibition (A431, 0.12 µM) was 0%, the target mRNA inhibition (A431, 0.6 µM) was 38% and the target mRNA inhibition (A431, 3 µM) was 54%. It also gave a target mRNA inhibition (A431, 15 µM) of 68%, a target mRNA inhibition (HepG2, 0.222 µM) of 64% and a target mRNA inhibition (HepG2, 0.667 µM) of 89%. It also gave a target mRNA inhibition (HepG2, 2 µM) of 94% and a target mRNA inhibition (HepG2, 6 µM) of 92%.
“ATGTTTATCAGGATACA (sugars e2 k2 d8 k2 e3, PS)” gave a target mRNA inhibition (HepG2, 0.1875 µM) of 40%, a target mRNA inhibition (HepG2, 0.75 µM) of 75% and a target mRNA inhibition (HepG2, 3 µM) of 92%. For the same sequence, the target mRNA inhibition (HepG2, 4 µM) was 85% and 86% and the target mRNA inhibition (HepG2, 12 µM) was 95% and 98%.
“CGCCGAGGTCCTGGTTCCGA (sugars e5 d10 e5, PS)” gave a target mRNA inhibition (HepG2, 4 µM) of 24%.
In the case of “CAGGATAACAGATGAGT (sugars e2 k2 d9 k2 e2, PS)”, the target mRNA inhibition (HepG2, 0.1875 µM) is reported as 56%, the target mRNA inhibition (HepG2, 0.75 µM) is reported as 89% and the target mRNA inhibition (HepG2, 3 µM) is reported as 93%. It also gave a target mRNA inhibition (HepG2, 4 µM) of 96% and a target mRNA inhibition (HepG2, 12 µM) of 96%.
“TCAGTTTCTCACTACAG (sugars e2 k2 d8 k2 e3, PS)” was tested, and the target mRNA inhibition (HepG2, 5 µM) was 25%.
Work on “TCTCACTACAGGTACTT (sugars e2 k2 d9 k2 e2, PS)” yielded a target mRNA inhibition (HepG2, 5 µM) of 46%.
Sequence “ATACAGGTCATTGAAAC (sugars e2 k2 d8 k2 e3, PS)” has a target mRNA inhibition (HepG2, 5 µM) of 33%.
“CAACATGCCTCTCTTCA (sugars e3 k2 d7 k2 e3, PS)” showed a target mRNA inhibition (HepG2, 3 µM) of 3%.
“AATAAGTGCCATACAGG (sugars e2 k2 d8 k2 e3, PS)” gave a target mRNA inhibition (HepG2, 5 µM) of 40%.
Work on “AAGTTTAATACCCATCT (sugars e2 k2 d9 k2 e2, PS)” yielded a target mRNA inhibition (HepG2, 5 µM) of 59%.
In the case of “TATTCACAGGCTTGAAT (sugars e3 k2 d7 k2 e3, PS)”, the target mRNA inhibition (HepG2, 3 µM) is reported as 0%.
In the case of “GTGAGGACCTGCACTGGTAC (sugars e5 d10 e5, linkages s1 o3 s11 o3 s1)”, the target mRNA inhibition (A431, 0.12 µM) is reported as 0%, the target mRNA inhibition (A431, 0.6 µM) is reported as 17% and the target mRNA inhibition (A431, 3 µM) is reported as 0%. It also gave a target mRNA inhibition (A431, 15 µM) of 16%, a target mRNA inhibition (HepG2, 0.222 µM) of 0% and a target mRNA inhibition (HepG2, 0.667 µM) of 16%. For the same sequence, the target mRNA inhibition (HepG2, 2 µM) was 70%, the target mRNA inhibition (HepG2, 3 µM) was 50% and the target mRNA inhibition (HepG2, 6 µM) was 35%.
“TTACAGTGTTTAATGTTT (sugars e5 d8 e5, linkages s1 o3 s9 o2 s2)” gave a target mRNA inhibition (A431, 0.12 µM) of 4%, a target mRNA inhibition (A431, 0.6 µM) of 0% and a target mRNA inhibition (A431, 3 µM) of 33%. The target mRNA inhibition (A431, 15 µM) was 17%, the target mRNA inhibition (HepG2, 0.222 µM) was 17% and the target mRNA inhibition (HepG2, 0.667 µM) was 42%. For the same sequence, the target mRNA inhibition (HepG2, 2 µM) was 76% and the target mRNA inhibition (HepG2, 6 µM) was 54%.
